Experimental data taken from ChEMBL document CHEMBL5523740, “Discovery of Potent and Selective c-Met Degraders for Hepatocellular Carcinoma Treatment” (J Med Chem, 2024).
Active and inactive are the calls of the source. No cut-off for these calls is given here.

Tests used:
MHCC97H [1] = test: Inhibition of cell growth in human MHCC97H cells incubated for 5 days by microplate reader assay; assay type: functional, cell-based; conditions: time 5.0 day
MHCC97H [2] = test: Induction of apoptosis in human MHCC97H cells assessed as viable cells at 100 nM incubated for 24 hrs by Annexin-V-FITC/PI staining based flow cytometry analysis (reference value: 86.3%); assay type: functional; conditions: read-out: Activity
[3] = Mean residence time (0 to infinity) in Sprague-Dawley rat at 1 mg/kg, iv by LC-MS/MS method; assay type: ADME, organism-based; conditions: in vivo
MHCC97H [4] = test: Induction of apoptosis in human MHCC97H cells assessed as late apoptotic cells at 10 nM incubated for 24 hrs by Annexin-V-FITC/PI staining based flow cytometry analysis (reference value: 4.24%); assay type: functional
[5] = Toxicity in BALB/c mouse xenografted with human MHCC97H cells assessed as spleen lesions at 10 mg/kg, ip qd for 22 days and measured every 2 days by H and E staining based assay; assay type: organism-based; conditions: in vivo, 528 h, time 22 day
[6] = molecular target: T1, Hepatocyte growth factor receptor (Homo sapiens, UniProt P08581); test: Induction of c-Met degradation in human MHCC97H cells incubated for 24 hrs by Western blotting analysis; assay type: cell-based
MHCC97H [7] = test: Induction of apoptosis in human MHCC97H cells assessed as viable cells at 3 nM incubated for 24 hrs by Annexin-V-FITC/PI staining based flow cytometry analysis (reference value: 86.3%); assay type: functional; conditions: read-out: Activity
[8] = Half-life in Sprague-Dawley rat at 1 mg/kg, iv by LC-MS/MS method; assay type: ADME, organism-based; conditions: in vivo
[9] = Toxicity in BALB/c mouse xenografted with human MHCC97H cells assessed as kidney lesions at 20 mg/kg, po qd for 22 days and measured every 2 days by H and E staining based assay; assay type: organism-based; conditions: in vivo, 528 h, time 22 day
[10] = Toxicity in BALB/c mouse xenografted with human MHCC97H cells assessed as spleen lesions at 20 mg/kg, po qd for 22 days and measured every 2 days by H and E staining based assay; assay type: organism-based; conditions: in vivo, 528 h, time 22 day
[11] = molecular target: T1, Hepatocyte growth factor receptor; test: Induction of c-Met degradation in human MHCC97H cells assessed as downregulation of c-Met protein level at 500 nM after 24 hrs by Western blotting analysis; assay type: cell-based
[12] = Tmax in Sprague-Dawley rat at 1 mg/kg, iv by LC-MS/MS method; assay type: ADME, organism-based; conditions: in vivo
[13] = Toxicity in BALB/c mouse xenografted with human MHCC97H cells assessed as kidney lesions at 10 mg/kg, ip qd for 22 days and measured every 2 days by H and E staining based assay; assay type: organism-based; conditions: in vivo, 528 h, time 22 day
BaF3 [14] = test: Antiproliferative activity against mouse BaF3 cells harboring TPR-MET Y1230H mutant fusion protein incubated for 72 hrs by CellTiter-Glo reagent based assay; assay type: functional, cell-based; conditions: BaF3, 72 h
[15] = molecular target: T1, Hepatocyte growth factor receptor; test: Induction of c-Met degradation in human HepG2 cells incubated for 24 hrs by Western blotting analysis; assay type: cell-based; conditions: dose 63-100 nM
MHCC97H [16] = test: Induction of cell cycle arrest in human MHCC97H cells assessed as accumulation of cells at G2 phase at 3 nM incubated for 24 hrs by PI staining based flow cytometry analysis (reference value: 19.1%); assay type: functional
MHCC97H [17] = test: Antitumor activity against human MHCC97H cells xenografted in BALB/c mouse assessed as tumor growth inhibition at 20 mg/kg, po qd for 22 days and measured every 2 days by Ki67 staining based analysis; assay type: functional, organism-based; conditions: time 22.0 day
[18] = Toxicity in BALB/c mouse xenografted with human MHCC97H cells assessed as reduction in body weight at 10 mg/kg, ip qd for 22 days and measured every 2 days; assay type: organism-based; conditions: in vivo, 528 h, time 22 day
[19] = Toxicity in BALB/c mouse xenografted with human MHCC97H cells assessed as liver lesions at 10 mg/kg, ip qd for 22 days and measured every 2 days by H and E staining based assay; assay type: organism-based; conditions: in vivo, 528 h, time 22 day
MHCC97H [20] = test: Induction of cell cycle arrest in human MHCC97H cells assessed as accumulation of cells at G2 phase at 10 nM incubated for 24 hrs by PI staining based flow cytometry analysis (reference value: 19.1%); assay type: functional
[21] = molecular target: T1, Hepatocyte growth factor receptor; test: Induction of c-Met degradation in human Huh-7 cells incubated for 24 hrs by Western blotting analysis; assay type: cell-based; conditions: dose 63-100 nM
Mus musculus [22] = test: Downregulation of phosphorylated c-Met level in BALB/c mouse tumor xenografted with human MHCC97H cells at 10 mg/kg, ip qd for 22 days and measured every 2 days by Western blotting analysis; assay type: functional, organism-based; conditions: time 22.0 day
[23] = Clearance in Sprague-Dawley rat at 1 mg/kg, iv by LC-MS/MS method; assay type: ADME, organism-based; conditions: in vivo
[24] = Oral bioavailability in Sprague-Dawley rat at 10 mg/kg by LC-MS/MS method; assay type: ADME, organism-based; conditions: in vivo
[25] = Clearance in Sprague-Dawley rat at 10 mg/kg, po by LC-MS/MS method; assay type: ADME, organism-based; conditions: in vivo
MHCC97H [26] = test: Induction of cell cycle arrest in human MHCC97H cells assessed as accumulation of cells at G1 phase at 10 nM incubated for 24 hrs by PI staining based flow cytometry analysis (reference value: 70.4%); assay type: functional
BaF3 [27] = test: Antiproliferative activity against mouse BaF3 cells harboring TPR-MET D1228N mutant fusion protein incubated for 72 hrs by CellTiter-Glo reagent based assay; assay type: functional, cell-based; conditions: BaF3, 72 h
[28] = Cmax in Sprague-Dawley rat at 10 mg/kg, po by LC-MS/MS method; assay type: ADME, organism-based; conditions: in vivo
[29] = Tmax in Sprague-Dawley rat at 10 mg/kg, po by LC-MS/MS method; assay type: ADME, organism-based; conditions: in vivo
Mus musculus [30] = test: Downregulation of c-Met protein level in BALB/c mouse tumor xenografted with human MHCC97H cells at 10 mg/kg, ip qd for 22 days and measured every 2 days by Western blotting analysis; assay type: functional, organism-based; conditions: time 22.0 day
Mus musculus [31] = test: Downregulation of phosphorylated c-Met level in BALB/c mouse tumor xenografted with human MHCC97H cells at 20 mg/kg, po qd for 22 days and measured every 2 days by Western blotting analysis; assay type: functional, organism-based; conditions: time 22.0 day
MHCC97H [32] = test: Antiproliferative activity against human MHCC97H cells incubated for 24 hrs by CCK8 assay; assay type: functional, cell-based
MHCC97H [33] = test: Antitumor activity against human MHCC97H cells xenografted in BALB/c mouse assessed as tumor growth inhibition at 20 mg/kg, po qd for 22 days and measured every 2 days; assay type: functional; conditions: 528 h, time 22 day, read-out: TGI
[34] = Mean residence time (0 to infinity) in Sprague-Dawley rat at 10 mg/kg, po by LC-MS/MS method; assay type: ADME, organism-based; conditions: in vivo

T1 sequence (P08581 whole entry): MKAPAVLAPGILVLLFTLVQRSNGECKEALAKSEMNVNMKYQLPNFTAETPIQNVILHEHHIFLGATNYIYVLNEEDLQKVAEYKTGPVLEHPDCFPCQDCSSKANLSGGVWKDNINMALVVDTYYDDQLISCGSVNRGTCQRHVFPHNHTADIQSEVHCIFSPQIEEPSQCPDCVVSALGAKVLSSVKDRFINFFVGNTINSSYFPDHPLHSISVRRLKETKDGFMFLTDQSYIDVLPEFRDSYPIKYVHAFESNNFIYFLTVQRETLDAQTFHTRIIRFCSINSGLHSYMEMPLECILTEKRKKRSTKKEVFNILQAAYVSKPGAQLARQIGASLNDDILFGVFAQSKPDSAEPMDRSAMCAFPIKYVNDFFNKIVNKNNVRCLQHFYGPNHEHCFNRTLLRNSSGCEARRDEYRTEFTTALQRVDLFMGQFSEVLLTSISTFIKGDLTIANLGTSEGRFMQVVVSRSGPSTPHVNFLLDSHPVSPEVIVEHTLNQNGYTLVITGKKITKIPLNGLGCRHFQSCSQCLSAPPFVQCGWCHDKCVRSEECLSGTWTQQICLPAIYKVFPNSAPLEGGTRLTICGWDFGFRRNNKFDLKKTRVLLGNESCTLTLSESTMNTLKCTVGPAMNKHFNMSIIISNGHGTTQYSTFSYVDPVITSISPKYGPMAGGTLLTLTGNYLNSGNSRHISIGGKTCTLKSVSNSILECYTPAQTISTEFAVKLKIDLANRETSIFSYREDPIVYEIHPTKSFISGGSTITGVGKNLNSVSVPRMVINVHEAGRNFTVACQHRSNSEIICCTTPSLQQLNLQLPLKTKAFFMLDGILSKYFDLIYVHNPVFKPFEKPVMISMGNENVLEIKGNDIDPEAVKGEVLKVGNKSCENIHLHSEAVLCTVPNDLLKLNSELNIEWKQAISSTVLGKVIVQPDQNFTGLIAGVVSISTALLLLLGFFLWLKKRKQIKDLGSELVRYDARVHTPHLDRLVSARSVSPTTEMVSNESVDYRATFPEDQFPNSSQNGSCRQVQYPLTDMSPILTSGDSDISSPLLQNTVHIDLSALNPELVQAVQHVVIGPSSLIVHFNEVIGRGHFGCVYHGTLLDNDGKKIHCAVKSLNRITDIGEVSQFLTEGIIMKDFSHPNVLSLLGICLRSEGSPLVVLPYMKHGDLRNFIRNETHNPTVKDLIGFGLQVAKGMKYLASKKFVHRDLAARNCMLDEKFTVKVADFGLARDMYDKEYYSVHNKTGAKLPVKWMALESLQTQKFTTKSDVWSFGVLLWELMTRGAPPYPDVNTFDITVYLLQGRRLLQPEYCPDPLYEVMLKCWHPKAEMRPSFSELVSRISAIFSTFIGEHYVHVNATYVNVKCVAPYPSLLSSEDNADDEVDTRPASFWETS

N#Cc1cccc(-c2ccc(=O)n(Cc3cccc(-c4ncc(OCC5CCN(CCCCCC(=O)NCC67CC8CC(CC(C8)C6)C7)CC5)cn4)c3)n2)c1
inhibition (MHCC97H [1]): Active
viability at 0.1 µM (MHCC97H [2]): 52.7%
MRT inf [3]: 3.86 h
Activity (MHCC97H [4]): 6.18%
Activity [5]: Non-Toxic
DC50 [6]: 0.226 µM
Activity ([6]; dose 63-100 nM): Dose-Dependent Effect
viability at 0.003 µM (MHCC97H [7]): 79.5%
half-life [8]: 2.5 h
Activity [9]: Non-Toxic
Activity [10]: Non-Toxic
Activity [11]: Active
Tmax [12]: 4.98 min
Activity [13]: Non-Toxic
IC50 (BaF3 [14]): 0.379 µM
Activity [15]: Dose-Dependent Effect
Activity (MHCC97H [16]): 15.9%
Activity (MHCC97H [17]): Active
Activity [18]: Non-Toxic
Activity [19]: Non-Toxic
Activity (MHCC97H [20]): 14.3%
Activity [21]: Dose-Dependent Effect
Activity (Mus musculus [22]): Active
clearance [23]: 17.5 mL/min/kg
bioavailability [24]: 0.8%
CL/F [25]: 3310 mL/min/kg
Activity (MHCC97H [26]): 77.6%
IC50 (BaF3 [27]): 0.463 µM
Cmax [28]: 16.3 ng/mL
Tmax [29]: 1.17 h
Activity (Mus musculus [30]): Active
Activity (Mus musculus [31]): Active
IC50 (MHCC97H [32]): 0.00262 µM
inhibition in vivo at 20 mg/kg (MHCC97H [33]): 52.5%
MRT inf [34]: 3.73 h
